The source of these data is US20070265335A1, “POLYMORPHS OF 5-CYCLOPROPYL-2-(4-FLUOROPHENYL)-6-[(2-HYDROXYETHYL)(METHYLSUFONYL)AMINO]-N-METHYL-1-BENZOFURAN-3-CARBOXAMIDE AND METHODS OF MAKING THE SAME” (WYETH, priority 2005, published 2007).

In one data set the test system is hepatitis C virus. To be noted: as disclosed in U.S. Patent Application Publication No. 2004-0162318; cited from earlier work.
A short description of data set [1]: thermodynamic stability of the crystalline form. Type of data set: physicochemical. To be noted: as indicated by its high melting point of about 175° C. An excerpt:
(§1) The first embodiment of the present invention is directed to a substantially pure polymorphic form A of 5-cyclopropyl-2-(4-fluorophenyl)-6-[(2-hydroxyethyl)(methylsulfonyl)amino]-N-methyl-1-benzofuran-3-carboxamide. The terms “polymorphic form”, “crystal modification”, “polymorph”, and “crystalline form” are used interchangeably herein. As used herein, the terms “isolated” and/or “substantially pure” mean more than 50% of the crystalline 5-cyclopropyl-2-(4-fluorophenyl)-6-[(2-hydroxyethyl)(methylsulfonyl)amino]-N-methyl-1-benzofuran-3-carboxamide or salt thereof is present in the form described herein and preferably at least 70%, more preferably at least 80%, and most preferably at least 90% of the crystalline form described herein is present. […] The peaks shown therein include: 8.4°, 9.0°, 9.8°, 10.1°, 12.6°, 12.9°, 13.2°, 13.4°, 15.9°, 16.4°, 16.8°, 17.4°, 17.9°, 18.4°, 18.5°, 19.0°, 19.2°, 19.7°, 19.8°, 20.0°, 20.2°, 20.5°, 21.0°, 21.7°, 22.2°, 22.6°, 23.6°, 24.0°, 24.5°, 24.7°, 24.9°, 25.3°, 25.9°, 26.0°, 26.5°, 26.9°, 27.3°, 27.6°, 28.1°, 28.7°, […], 30.0°, 30.7°, 31.0°, 31.9°, 32.1°, 32.5°, 33.6°, 34.4°, 34.8°, 35.1°, 35.6°, 36.7°, 36.9°, 37.5°, 38.4°, 38.8°, 39.2° and 39.6° (2θ degrees); one of ordinary skill in the art will readily understand that an about 0.1° to about 0.2° variation for peak positions is typical. […]

The nature of another data set: settling from suspension. The format is physicochemical.
Text: as §1

Data set [2] is described as follows: hygroscopicity on exposure to air. The format is physicochemical. To be noted: exposed to air for a period of about 1 week.
Text: as §1

Regarding `CNC(=O)c1c(-c2ccc(F)cc2)oc2cc(N(CCO)S(C)(=O)=O)c(C3CC3)cc12` [5-cyclopropyl-2-(4-fluorophenyl)-6-[(2-hydroxyethyl)(methylsulfonyl)amino]-N-methyl-1-benzofuran-3-carboxamide], in the data set with hepatitis C virus, the “inhibition of the hepatitis C virus” value is recorded as “potent inhibitor”.
For `CNC(=O)c1c(-c2ccc(F)cc2)oc2cc(N(CCO)S(C)(=O)=O)c(C3CC3)cc12` [form A, 5-cyclopropyl-2-(4-fluorophenyl)-6-[(2-hydroxyethyl)(methylsulfonyl)amino]-N-methyl-1-benzofuran-3-carboxamide], the “thermodynamic stability of polymorph” value in data set [1] is reported as “thermodynamically favored stable form”. Besides, the settling from suspension entry in “settling from suspension” is “tends to settle quickly from suspension”. For the same molecule, the hygroscopicity entry in data set [2] is recorded as “non-hygroscopic”.
For `CNC(=O)c1c(-c2ccc(F)cc2)oc2cc(N(CCO)S(C)(=O)=O)c(C3CC3)cc12` [form B, 5-cyclopropyl-2-(4-fluorophenyl)-6-[(2-hydroxyethyl)(methylsulfonyl)amino]-N-methyl-1-benzofuran-3-carboxamide], the settling from suspension result in the data set “settling from suspension” is listed as “tends not to settle quickly from suspension”.
